# In the NIST ThermoML archive (doi:10.1016/j.fluid.2005.08.006):
# ± gives the expanded uncertainty stated by the source.
# Experiment: refractive index (Na D-line) (dimensionless)
# Conditions: 293.15 K; 101.33 kPa; Liquid; Standard Abbe refractometry
row,SMILES,refractive index
1,CCCCCC [hexane],1.3749 ± 0.0007
2,CCCCCCCCCC [decane],1.4105 ± 0.0007
3,CC(C)C(=O)O [2-methylpropanoic acid],1.3933 ± 0.0007
4,CCCCC(=O)O [pentanoic acid],1.4087 ± 0.0007
5,CCC(=O)O [propanoic acid],1.381 ± 0.0007
6,C1CCCCC1 [cyclohexane],1.4265 ± 0.0007
7,CCO [ethanol],1.3612 ± 0.0007
